Measured values: patent US20040138462A1, “Aminoalcohol derivatives” (priority 2001, published 2004)

Experiments:
[1] = test system: increase in intravesical pressure induced by carbachol in anesthetized dog; assay: Effect on the increase in intravesical pressure induced by carbachol in anesthetized dog; assay type: in vivo, Beagle dogs; settings: intraduodenal administration
Procedure: Effect on the increase in intravesical pressure induced by carbachol in anesthetized dog
Female Beagle dogs weighing 8.0-15.0 kg were fasted for 24 hours and maintained under halothane anesthesia. A 12F Foley catheter was lubricated with water soluble jelly, inserted into the urethral orifice and advanced approximately 10 cm until the balloon tip was placed well inside the bladder. The balloon was then inflated with 5 ml of room air and catheter slowly withdrawn just part the first resistance that is felt at the bladder neck. Urine was completely drained out through the catheter, and 30 ml of biological saline was infused. The catheter was connected to pressure transducer, and intravesical pressure was continuously recorded. Intraduodenal administration of test compound (I) inhibited carbachol (1.8 μg/kg)-induced increase in intravesical pressure (IVP).

O=S(=O)(c1ccccc1)c1ccc(C[C@@H](CO)NC[C@H](O)COc2ccccc2)cc1 [Test Compound (1), (2S)-2-[((2S)-2-Hydroxy-3-phenoxypropyl)amino]-3-[4-(phenylsulfonyl)phenyl]-1-propanol]
% inhibition of carbachol-induced increase in IVP ([1]; 0.32 mg/kg, female Beagle dogs under halothane anesthesia, carbachol 1.8 μg/kg): 30% | carbachol (1.8 μg/kg)-induced increase in intravesical pressure (IVP) ([1]; anesthetized female Beagle dogs): inhibited

CCOC(=O)COc1ccc(S(=O)(=O)c2ccc(CCNC[C@H](O)c3cccc(Cl)c3)cc2)cc1.Cl
melting point: 198 to 200 °C
